Results from patent US20070026431A1, “Modulation of MAPK-mediated phosphorylation and/or FBXW8-mediated ubiquitinylation of cyclin D1 in modulation of cellular proliferation” (priority 2005, published 2007).
Entries after “also recorded” stand apart in the source; their conditions may differ.

Legend:
[1] = tested on: cyclin D1 protein; experiment: Pulse-chase analysis of cyclin D1 protein in HCT 116 cells; format: cell-based, human; details: HCT 116; 5 μM BIO 24 hours
Method: FIG. 11 illustrates that ERK/MAPK is identified as the major kinase that is responsible for the stability of cyclin D1 protein. Panels A-F: Pulse-chase analysis of cyclin D1 protein in HCT 116 cells after exposure to the MEK inhibitor U0126 (A-C) or the GSK3 inhibitor BIO (D-F). Exponentially growing HCT 116 cells were treated with either DMSO or 10 μM of U0126 (A-C) for 30 minutes, or DMSO or 5 μM of BIO (D-F) for 24 hours. Panels A and D: Cells were pulse-labeled with ^35S-methionine for 1 hour. Subsequently these cells were chased with cold methionine for the indicated times, and then lysed respectively. Cyclin D1 was immunoprecipitated and then analyzed with SDS-PAGE. Autoradiography was performed. Levels of metabolically labeled-cyclin D1 were estimated by quantitative scanning using the Quantity One (Bio-Rad) software and blotted on the graph to determine the half-life of cyclin D1. […]
FIG. 18 illustrates that knockdown of FBXW8, or its partner CUL1 or CUL7 expression through siRNA stabilizes cyclin D1 expression in HCT 116 colon cancer cells. […] Cyclin D1 was immunoprecipitated and then analyzed with SDS-PAGE. Levels of metabolically labeled-cyclin D1 were estimated by quantitative scanning using the Quantity One software (Bio-Rad) and blotted on the graph to determine the half-life of cyclin D1 (D).
Pulse-Chase Analysis. […] Cyclin D1 was immunoprecipitated and then analyzed with SDS-PAGE. […]

[2] = tested on: cyclin D1 protein (Thr286 phosphorylation); experiment: Western blot of cyclin D1 and p-Thr286 cyclin D1 in HA-CD1 SW480 cells treated with kinase inhibitors; format: cell-based, human; details: HA-WT CD1 SW480 cells; 24 hours of treatment
Method: Immunoblot analysis was performed. […] Asterisks indicate endogenous cyclin D1 expression. Panel B: Western blot analysis with fractionated nuclear proteins. […] Cell-cycle distribution was shown as bar graphs. Nuclear proteins were fractionated at indicated time points. […] Levels of total and phosphorylated cyclin D1 were determined.
Immunoblotting Analysis. […] SDS-PAGE was described previously (Tetsu and McCormick, 2003).
To identify the kinase responsible for cyclin D1 Thr286 phosphorylation, small molecule inhibitors of GSK3β, CDK4, and MEK were used to determine whether they were able to alter the phosphorylation and stability of ectopically expressed WT cyclin D1 protein in cultured cells (FIG. 5, Panels C and D). Ectopically expressed WT cyclin D1 protein was used to assess the stability of cyclin D1 protein. The endogenous expression was not assessed because transcription of cyclin D1 is regulated by the Ras/MAPK signaling. Therefore, endogenous expression of cyclin D1 is unable to be detected following inhibition of MAPK activities through the MEK/MAPK inhibitors or serum starvation (Tetsu et al., 2003. Cancer Cell. 3, 233-45).

[3] = tested on: HCT 116 colon cancer cells; experiment: Flow-cytometric cell cycle analysis, HCT 116 cells; format: cell-based, human; details: BIO 24 hours
Method: Cell cycle analysis was carried out as described previously (Tetsu et al. (1999) Nature 398: 422-6; Tetsu et al. (2003) Cancer Cell 3: 233-45.

[4] = tested on: cyclin D1 Thr286 phosphorylation; experiment: Thr286 phosphorylation of transfected ΔD cyclin D1 after BIO, NIH 3T3 cells; format: cell-based, mouse; details: 5 μM BIO 24 hours after transfection
Text: FIG. 9 illustrates that MAPK directly binds to cyclin D1 through the MAPK docking site (D-domain) within cyclin D1 and phosphorylates it specifically at Thr286. Panel A: p42 ERK2-associated GST-cyclin D1 (CD1) in vitro kinase assays (upper panels). Purified ERK2 phosphorylates cyclin D1 in vitro. Immuno-blotting (IB) analyses stained with a GST antibody (lower panels) were provided as a reference to show loading conditions of various forms of GST-CD1 fusion proteins. (A) GST alone (lane 1), GST-human (h) CD1 amino acids (A.A.) from 165 to 295 (165-295, lane 2), GST-human (h) or mouse (m) CD1 A.A. from 255 to 295 (255-295, lane 3 and 4) were used. Panel B: Western blot analysis following transfection of various forms of HA-tagged cyclin D1 expression vectors in both NIH 3T3 mouse fibroblast (left) and HCT 116 colon cancer (right) cells. In lane 5 and 10, Cells were treated with 5 μM of a highly specific GSK3β inhibitor BIO for further 24 hours following transfcetion of the ΔD CD1 mutant.
FIG. 11 illustrates that ERK/MAPK is identified as the major kinase that is responsible for the stability of cyclin D1 protein. […] Cyclin D1 was immunoprecipitated and then analyzed with SDS-PAGE. […] Levels of metabolically labeled-cyclin D1 were estimated by quantitative scanning using the Quantity One (Bio-Rad) software and blotted on the graph to determine the half-life of cyclin D1. […]

O=C1Nc2cc(Br)ccc2/C1=C1/Nc2ccccc2/C1=N\O [BIO] was tested, and the “half-life of cyclin D1 protein” value [1] was “no significant difference”, the “total cyclin D1 expression and its phosphorylated protein” value [2] was “no significant difference” and the cell cycle profile [3] was “without affecting”. The “phosphorylation status of cyclin D1 at Thr286 (ΔD mutant)” value [4] was “slight change; also recorded: reduction”.
